Laboratory results: patent US20110251286A1, “Crystalline salts and/or co-crystals of O-desmethyltramadol” (GRUENENTHAL GmbH, priority 2010, published 2011)

Experiment: Release in artificial intestinal juice
Type: physicochemical
Conditions: permeable bag, amount calculated on 100 mg free base
Procedure: Investigations on release were carried out in a Sotax AT7 smart release apparatus with UV measurement (Perkin Elmer photometer).
A vessel with Wood apparatus was used (for intrinsic release).
A pressing of 0.5 cm^2 surface area (diameter 8 mm) was produced with a force of 200 N using approximately 100 mg of active ingredient.
Release was carried out in a release medium, which is composed as described below: • Intestinal juice without pancreas powder, pH 6.8 (analogous to Ph. Eur.); 250.0 ml 6.8 g of potassium dihydrogenphosphate R+0.896 g of NaOH+water to 1000.0 ml.
Release was carried out in a release volume of in each case 500±5 ml at a temperature of the release medium of 37±1° C. with a stirring speed of 100±5 rpm.
The content determination was carried out by means of spectroscopic methods (UV spectroscopy, wavelength: 271 nm, cuvette: 10 mm). Sample taking was carried out manually.
In this release experiment, the individual compounds were placed in a permeable bag in an amount in each case calculated on 100 mg of the free base.
The results, expressed in percent of the substance released, are reproduced in the following tables. In this case, the compounds denote: HCl: hydrochloride; A: cinnamate; B: palmitate; C: decanoate; E: hemi-fumarate and F: hemi-sebacate.

| SMILES | Release in artificial intestinal juice, percent of the substance released (t 2 min) [%] | Release in artificial intestinal juice, percent of the substance released (t 4 min) [%] | Release in artificial intestinal juice, percent of the substance released (t 6 min) [%] | Release in artificial intestinal juice, percent of the substance released (t 8 min) [%] | Release in artificial intestinal juice, percent of the substance released (t 10 min) [%] | Release in artificial intestinal juice, percent of the substance released (t 12 min) [%] | Release in artificial intestinal juice, percent of the substance released (t 15 min) [%] | Release in artificial intestinal juice, percent of the substance released (t 30 min) [%] |
| --- | --- | --- | --- | --- | --- | --- | --- | --- |
| CN(C)CC1CCCCC1(O)c1cccc(O)c1.O=C(O)C=Cc1ccccc1 (stereo not shown) [A-1] | 58.49 | 74.11 | 84.48 | 91.49 | 92.24 | 96.63 | 97.34 | 102.44 |
| CN(C)CC1CCCCC1(O)c1cccc(O)c1.O=C(O)C=Cc1ccccc1 (stereo not shown) [A-2] | 53.05 | 76.86 | 86.98 | 96.27 | 94.24 | 95.42 | 98.53 | 98.80 |
| CCCCCCCCCCCCCCCC(=O)O.CN(C)CC1CCCCC1(O)c1cccc(O)c1 [B-1] | 17.63 | 31.60 | 55.36 | 53.71 | 67.26 | 69.49 | 76.13 | 95.50 |
| CCCCCCCCCC(=O)O.CN(C)CC1CCCCC1(O)c1cccc(O)c1 (stereo not shown) [C-1] | 79.57 | 93.67 | 99.13 | 99.87 | 99.63 | 99.80 | 99.92 | 100.27 |
| CCCCCCCCCC(=O)O.CN(C)CC1CCCCC1(O)c1cccc(O)c1 (stereo not shown) [C-2] | 92.62 | 99.12 | 99.74 | 99.73 | 99.55 | 99.73 | 99.56 | 99.77 |
